For assay [1], the target named is Death-associated protein kinase 1 (Homo sapiens) (UniProt P53355).
Description: Binding affinity to DAPK1 (unknown origin) assessed as change in Gibbs free energy by ITC analysis
Assay [2] shares this target. The source holds these as a separate data set.
Description: Binding affinity to DAPK1 (unknown origin) assessed as change in enthalpy by ITC analysis
Assay [3] has the same target. The source holds these as a separate data set.
Description: Binding affinity to DAPK1 (unknown origin) assessed as change in entropy by ITC analysis

Sequence of Death-associated protein kinase 1 (Homo sapiens) (P53355 whole entry, looked up): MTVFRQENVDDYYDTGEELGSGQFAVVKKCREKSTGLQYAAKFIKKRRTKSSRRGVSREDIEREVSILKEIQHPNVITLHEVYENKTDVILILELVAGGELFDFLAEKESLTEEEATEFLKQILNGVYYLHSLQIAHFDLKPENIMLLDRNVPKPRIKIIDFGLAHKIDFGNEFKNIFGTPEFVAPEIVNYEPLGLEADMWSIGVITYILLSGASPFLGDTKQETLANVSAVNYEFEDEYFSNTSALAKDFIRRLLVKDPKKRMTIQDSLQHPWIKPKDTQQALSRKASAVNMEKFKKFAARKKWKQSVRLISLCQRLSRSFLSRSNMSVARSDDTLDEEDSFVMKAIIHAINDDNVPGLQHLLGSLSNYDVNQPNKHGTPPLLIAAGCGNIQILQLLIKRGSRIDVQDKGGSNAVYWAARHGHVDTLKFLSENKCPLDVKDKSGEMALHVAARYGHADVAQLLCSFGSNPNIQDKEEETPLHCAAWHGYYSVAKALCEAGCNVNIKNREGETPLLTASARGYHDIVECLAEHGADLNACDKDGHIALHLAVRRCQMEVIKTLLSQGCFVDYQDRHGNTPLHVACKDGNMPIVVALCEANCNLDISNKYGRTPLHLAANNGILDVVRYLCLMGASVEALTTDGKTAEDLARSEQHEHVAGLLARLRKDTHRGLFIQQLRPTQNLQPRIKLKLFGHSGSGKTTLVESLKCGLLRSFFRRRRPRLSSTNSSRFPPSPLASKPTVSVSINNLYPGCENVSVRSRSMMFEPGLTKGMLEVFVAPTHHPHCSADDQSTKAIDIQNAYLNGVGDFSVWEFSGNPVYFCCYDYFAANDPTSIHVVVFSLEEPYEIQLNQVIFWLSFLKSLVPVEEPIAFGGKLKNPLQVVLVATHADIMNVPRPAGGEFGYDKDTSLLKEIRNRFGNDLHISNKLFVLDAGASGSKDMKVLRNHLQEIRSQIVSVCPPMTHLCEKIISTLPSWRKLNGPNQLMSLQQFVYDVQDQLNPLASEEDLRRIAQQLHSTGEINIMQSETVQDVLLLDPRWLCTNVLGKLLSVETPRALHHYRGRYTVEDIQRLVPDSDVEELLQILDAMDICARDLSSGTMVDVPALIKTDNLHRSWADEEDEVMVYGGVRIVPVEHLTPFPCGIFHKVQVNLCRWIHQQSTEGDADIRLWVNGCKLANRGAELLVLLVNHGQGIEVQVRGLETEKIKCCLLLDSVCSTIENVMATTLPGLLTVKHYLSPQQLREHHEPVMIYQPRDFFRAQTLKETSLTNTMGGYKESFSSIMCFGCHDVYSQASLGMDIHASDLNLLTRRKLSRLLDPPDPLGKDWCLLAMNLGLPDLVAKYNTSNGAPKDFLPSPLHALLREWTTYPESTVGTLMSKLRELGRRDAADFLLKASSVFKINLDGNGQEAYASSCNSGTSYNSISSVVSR

For the compound `O=C(/C=C/c1ccc(O)cc1)c1ccc(O)cc1O`, the deltaG in assay [1] was -7.66 kcal/mol. This compound also yielded a deltaH in assay [2] of -9.55 kcal/mol. Further, the -TdeltaS in assay [3] stood at 1.9 kcal/mol.

Values taken from ChEMBL document CHEMBL6127040, “Discovery and optimization of isoliquiritigenin as a death-associated protein kinase 1 inhibitor” (Eur J Med Chem, 2024).
